These results are taken from patent publication US4808718A, “Fused polycyclic and bridged compounds useful as calcium channel blockers” (Merck & Co., Inc., priority 1986, dated 1989).

Where two headings read alike, the source gives them in different places.

The experiment has as its target T1, nitrendipine binding (purified sarcolemal vesicles) (Homo sapiens, UniProt Q13936).
T1 construct: purified sarcolemal vesicles in 50 mM tris-HCl; from tissue
In words: nitrendipine binding assay ([^3 H] nitrendipine, purified sarcolemal vesicles). As for the experimental part:
As stated earlier, the compounds of the present invention have a property that enables them to be used as calcium entry blockers in the treatment of cardiovascular disorders.
In a representative assay, […] of purified sarcolemal vesicles in 50 mM tris-HCl, 10 uM calcium chloride, and […] magnesium chloride at pH 7.4 were incubated with […] [^3 H] nitrendipine (78 Ci/mmol) with or without test compound in a final volume of […] for 3 hours at 25° C. The inhibition constant Ki is determined according to the following equation: [formula] where I50 is the compound concentration that produces 50 percent inhibiton of binding, [L] is ligand concentration, and kd is the affinity constant of the ligand.

Where [1] appears, read: purified sarcolemal vesicles, 50 mM tris-HCl, pH 7.4, 0.23 mM [^3 H] nitrendipine, 3 hours at 25° C., read-out: Ki, Inhibition of Nitrendipine Binding.

T1 sequence (Q13936 whole entry): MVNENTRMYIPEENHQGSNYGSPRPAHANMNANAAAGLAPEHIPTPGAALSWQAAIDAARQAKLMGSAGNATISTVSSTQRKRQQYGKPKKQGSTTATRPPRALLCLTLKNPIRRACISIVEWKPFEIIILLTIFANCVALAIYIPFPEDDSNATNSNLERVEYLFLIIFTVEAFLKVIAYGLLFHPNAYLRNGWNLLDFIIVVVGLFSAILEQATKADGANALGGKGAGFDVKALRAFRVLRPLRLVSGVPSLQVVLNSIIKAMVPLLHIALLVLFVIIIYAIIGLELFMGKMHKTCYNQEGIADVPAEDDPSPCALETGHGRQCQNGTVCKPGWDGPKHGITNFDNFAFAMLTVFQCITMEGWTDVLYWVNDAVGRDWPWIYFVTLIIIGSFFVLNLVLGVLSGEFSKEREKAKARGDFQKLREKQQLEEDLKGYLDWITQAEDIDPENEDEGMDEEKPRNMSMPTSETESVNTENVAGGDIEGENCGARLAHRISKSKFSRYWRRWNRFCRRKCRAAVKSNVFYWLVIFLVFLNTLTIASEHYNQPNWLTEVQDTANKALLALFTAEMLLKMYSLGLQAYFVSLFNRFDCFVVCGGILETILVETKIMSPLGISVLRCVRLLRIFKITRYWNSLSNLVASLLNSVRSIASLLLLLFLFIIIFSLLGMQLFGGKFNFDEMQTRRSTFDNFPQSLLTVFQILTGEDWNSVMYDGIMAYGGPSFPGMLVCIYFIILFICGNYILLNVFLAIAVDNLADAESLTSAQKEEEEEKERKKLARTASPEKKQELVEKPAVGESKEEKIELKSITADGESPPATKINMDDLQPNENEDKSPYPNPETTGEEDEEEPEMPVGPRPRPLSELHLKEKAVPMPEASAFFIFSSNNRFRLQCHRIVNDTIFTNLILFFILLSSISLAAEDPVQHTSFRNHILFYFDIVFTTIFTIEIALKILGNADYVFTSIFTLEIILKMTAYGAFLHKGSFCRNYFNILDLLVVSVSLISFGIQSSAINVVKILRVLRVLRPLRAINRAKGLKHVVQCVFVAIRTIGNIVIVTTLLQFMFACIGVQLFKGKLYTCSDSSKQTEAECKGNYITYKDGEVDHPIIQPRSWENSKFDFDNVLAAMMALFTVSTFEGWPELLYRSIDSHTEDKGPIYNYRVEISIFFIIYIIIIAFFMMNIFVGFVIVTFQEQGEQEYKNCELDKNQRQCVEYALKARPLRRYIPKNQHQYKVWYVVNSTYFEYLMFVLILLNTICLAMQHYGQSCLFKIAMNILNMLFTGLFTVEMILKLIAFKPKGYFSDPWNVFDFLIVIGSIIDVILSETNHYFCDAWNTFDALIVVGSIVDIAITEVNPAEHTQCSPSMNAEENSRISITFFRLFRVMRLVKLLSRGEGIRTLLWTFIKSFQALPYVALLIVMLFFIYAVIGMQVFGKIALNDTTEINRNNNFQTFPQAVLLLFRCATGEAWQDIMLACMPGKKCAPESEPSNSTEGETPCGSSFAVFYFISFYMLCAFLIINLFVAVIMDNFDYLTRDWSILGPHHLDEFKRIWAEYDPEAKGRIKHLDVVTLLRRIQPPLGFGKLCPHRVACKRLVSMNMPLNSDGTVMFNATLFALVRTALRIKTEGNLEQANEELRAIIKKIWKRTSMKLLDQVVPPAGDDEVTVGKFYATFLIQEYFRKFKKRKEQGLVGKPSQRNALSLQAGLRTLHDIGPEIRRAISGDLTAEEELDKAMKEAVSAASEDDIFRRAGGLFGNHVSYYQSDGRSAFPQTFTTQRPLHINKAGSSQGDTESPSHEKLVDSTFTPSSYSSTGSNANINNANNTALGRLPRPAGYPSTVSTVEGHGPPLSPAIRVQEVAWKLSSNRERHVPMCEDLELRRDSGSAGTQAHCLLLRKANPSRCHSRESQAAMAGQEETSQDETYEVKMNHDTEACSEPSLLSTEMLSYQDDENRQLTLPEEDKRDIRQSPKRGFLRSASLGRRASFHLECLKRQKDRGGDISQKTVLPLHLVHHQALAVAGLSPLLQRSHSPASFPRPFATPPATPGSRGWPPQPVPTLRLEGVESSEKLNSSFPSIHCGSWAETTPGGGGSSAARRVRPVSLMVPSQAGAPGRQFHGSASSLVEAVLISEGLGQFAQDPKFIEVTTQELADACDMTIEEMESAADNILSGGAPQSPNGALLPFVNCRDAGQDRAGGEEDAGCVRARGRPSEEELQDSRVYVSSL
T1 sequence (P54289 25-944 partner limits assumed): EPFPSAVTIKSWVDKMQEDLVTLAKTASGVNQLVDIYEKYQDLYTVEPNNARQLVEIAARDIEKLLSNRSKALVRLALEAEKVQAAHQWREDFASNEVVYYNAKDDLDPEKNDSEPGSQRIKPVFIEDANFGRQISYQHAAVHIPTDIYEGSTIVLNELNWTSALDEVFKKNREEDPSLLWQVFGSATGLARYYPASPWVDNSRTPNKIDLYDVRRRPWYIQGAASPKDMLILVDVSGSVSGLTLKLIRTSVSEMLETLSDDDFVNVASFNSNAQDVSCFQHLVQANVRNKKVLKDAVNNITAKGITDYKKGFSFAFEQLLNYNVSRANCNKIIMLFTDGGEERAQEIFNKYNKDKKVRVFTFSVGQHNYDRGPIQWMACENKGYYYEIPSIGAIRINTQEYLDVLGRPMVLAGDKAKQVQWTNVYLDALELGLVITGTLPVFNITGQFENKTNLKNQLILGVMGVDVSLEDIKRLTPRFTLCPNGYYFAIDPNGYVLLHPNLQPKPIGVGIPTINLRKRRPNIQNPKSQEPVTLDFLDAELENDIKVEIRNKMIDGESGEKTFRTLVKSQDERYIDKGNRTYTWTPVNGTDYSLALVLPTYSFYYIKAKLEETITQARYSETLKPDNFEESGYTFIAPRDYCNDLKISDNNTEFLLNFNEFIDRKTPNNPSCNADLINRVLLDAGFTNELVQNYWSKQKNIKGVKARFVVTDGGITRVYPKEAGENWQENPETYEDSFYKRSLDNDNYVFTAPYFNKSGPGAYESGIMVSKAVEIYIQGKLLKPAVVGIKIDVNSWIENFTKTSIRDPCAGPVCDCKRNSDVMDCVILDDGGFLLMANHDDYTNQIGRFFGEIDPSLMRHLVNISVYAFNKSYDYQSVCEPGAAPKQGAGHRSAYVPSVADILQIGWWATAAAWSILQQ
T1 sequence (P54289 945-1103 partner limits assumed): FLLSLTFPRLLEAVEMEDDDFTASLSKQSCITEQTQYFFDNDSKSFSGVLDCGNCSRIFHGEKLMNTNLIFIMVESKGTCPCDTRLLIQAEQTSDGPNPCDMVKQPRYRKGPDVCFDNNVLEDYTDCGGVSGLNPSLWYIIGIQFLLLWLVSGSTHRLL
T1 sequence (Q08289 whole entry partner): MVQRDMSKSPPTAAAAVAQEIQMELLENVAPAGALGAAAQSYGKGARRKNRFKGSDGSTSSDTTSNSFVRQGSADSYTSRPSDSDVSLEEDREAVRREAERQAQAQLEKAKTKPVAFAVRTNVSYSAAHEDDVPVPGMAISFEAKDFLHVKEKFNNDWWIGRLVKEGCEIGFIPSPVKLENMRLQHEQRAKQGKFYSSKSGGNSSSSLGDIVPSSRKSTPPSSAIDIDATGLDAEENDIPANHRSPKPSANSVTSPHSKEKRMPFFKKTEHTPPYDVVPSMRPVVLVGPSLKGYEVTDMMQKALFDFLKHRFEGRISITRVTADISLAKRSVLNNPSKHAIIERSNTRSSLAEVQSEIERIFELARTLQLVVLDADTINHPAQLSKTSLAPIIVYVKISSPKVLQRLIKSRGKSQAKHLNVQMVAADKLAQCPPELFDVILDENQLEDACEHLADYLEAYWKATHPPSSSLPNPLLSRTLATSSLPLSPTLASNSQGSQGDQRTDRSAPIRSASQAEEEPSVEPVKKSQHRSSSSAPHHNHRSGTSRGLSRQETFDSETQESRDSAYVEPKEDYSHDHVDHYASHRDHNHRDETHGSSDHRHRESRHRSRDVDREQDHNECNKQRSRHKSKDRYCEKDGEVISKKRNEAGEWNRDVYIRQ

As for `COC(=O)C1C(c2ccccc2)C2(C(=O)OC)C(C)=NC1(C)C1CC=CC12` (stereo not drawn) [Example 3, Dimethyl 1,4A,7,8A-tetrahydro-1,3-dimethyl-8-phenyl-1,4-ethano-4H-2-azetidinyl-4,9-dicarboxylate], the inhibitory constant (Ki) under setting [1] was 61 µM.
On to `COC(=O)C1C(c2ccccc2)C2(C(=O)OC)C(C)=NC1(C)CC2C[Si](C)(C)C` (stereo not drawn) [Example 1, Dimethyl 1,3-dimethyl-5-phenyl-8-[(trimethylsilyl)methyl]-2-azabicyclo[2.2.2]oct-2-ene-4,6-dicarboxylate], for which the inhibition constant Ki was 17 µM.
In the case of `COC(=O)C1C(c2ccccc2)C2(C(=O)OC)C(C)=NC1(C)CC2c1ccccc1` (stereo not drawn) [Example 2], the Ki under setting [1] is 34 µM.

What is called Ki is the dissociation constant of the complex between target and ligand, obtained from inhibition or displacement.
